Results: US6444850B1, “Fungicidial compounds having a fluorovinyloxphyenyl moiety and process for the preparation thereof” (priority 1997, dated 2002)

Key:
Rhizoctonia solani AG-1 = test: Fungicidal activity against rice sheath blight (RSB) disease; conditions: 50 ppm, control value
Description: 50 ml of the resulting solution was sprayed on leaves of a host plant. The plant was kept at room temperature for 24 hours to let the solvent evaporate, and then, a pathogenic fungus was inoculated thereonto. The plant was held in a humidity chamber for 24 hours, transferred to an plant growth room kept at 20 to 27° C. and a relative humidity of 60 to 80% and kept to induce disease. Subsequently, the lesion area(L.A.) attacked by the pathogenic fungus was measured according to a method of Cho(Cho, K. Y., Search Report by Korea Research Institute of Chemical Technology (1989))”. This procedure was repeated twice for each test. 10% Acetone solution containing 250 ppm of Tween-20 was used as a control.
The fungicidal activity of the compound of the present invention is repressed by a control value (C.V.) calculated as; [formula]
Rhizoctonia solani AG-1 was cultured on a PDA medium(potato 200 g, dextrose 20 g, agar 20 g and distilled water 1 l) for 3 days and the agar disc (diameter 0.6 cm) was inoculated and cultured on sterilized wheat bran medium in a 1 l bottle at 26 to 28° C. for 7 days. A mycelial mass was ground using a homogenizer, inoculated uniformly on soil of a pot wherein a Nakdong rice plant having 2 or 3 leaves and an height of 5 cm grew, and kept in humidity polyvinyl chamber for 5 days to induce RSB. L.A. on a leaf sheath was measured to calculate an C.V.

Botrytis cinerae = test: Fungicidal activity against cucumber gray mold rot (CGM) disease; assay type: in vivo; conditions: 50 ppm, control value
Description: Botrytis cinerae, which was isolated from cucumber infected thereby, was inoculated on a PDA agar medium and cultured under a 12L/12D cycle at 25° C. for 15 days to form spore. The spores were scraped, filtered through a gauze and then suspended in potato dextrose liquid medium at a concentration of 1×10^6 spore/ml. The spore suspension was sprayed on a cucumber plant having one leaf. The cucumber plant was held in a humidified room at 20° C. for 3 days. L.A. on a leaf was measured to calculate an C.V.

[1] = system: Pyricularia oryzae Carvara KA301; assay type: in vivo; conditions: for C. V. (%) RCB: 50 ppm, control value, rice blast; for C. V. (%) Fungicidal Activities against RCB at 10 ppm / C. V. (%) Fungicidal Activities against RCB at 10 ppm (TABLE 6): sprayed on Nakdong rice plant, control value from lesion area
Erysiphae graminis = test: Fungicidal activity against barley powdery mildew (BPM) disease; assay type: in vivo; conditions: for C. V. (%) BPM: 50 ppm, control value, barley powdery mildew; for C. V. (%), Fungicidal activities against TLB at 10 ppm: Table 9 (Test Example 6)
Description: Erysiphae graminis was subcultured on a wheat plant in a laboratory. 15 g of barley seeds was sowed in a pot (diameter 6.5 cm) and cultured in a greenhouse for 7 days to obtain a barley plant having only a primary leaf. The barley plant was inoculated with spores by shaking thereover another plant infected by BPM. The inoculated barley plant was cultured in an incubator maintained at a temperature of 22 to 24° C. and a relative humidity of 50% for 7 days to induce BPM. L.A. on the leaf was measured to calculate an C.V.

Phytophthora infestans = assay type: in vivo; conditions: 50 ppm; control value, tomato late blight
Puccinia recondita = test: Fungicidal activity against wheat leaf rust (WLR) disease; assay type: in vivo; conditions: for C. V. (%) WLR: 50 ppm, control value, wheat leaf rust; for C. V. (%), Fungicidal Activities against WLB at 10 ppm: Table 8 (Test Example 5)

CNC(=O)/C(=C/OC)c1ccccc1COc1cccc(OC(F)=C(c2ccc(C)c(C)c2)C(F)(F)F)c1 [Compound 64]
C. V. (%) RSB (Rhizoctonia solani AG-1): 0%
C. V. (%) CGM (Botrytis cinerae): 0%
C. V. (%) RCB [1]: 16%
C. V. (%) BPM (Erysiphae graminis): 0%
C. V. (%) TLB (Phytophthora infestans): 22%
C. V. (%) WLR (Puccinia recondita): 0%

COC=C(C(=O)OC)c1ccccc1COc1cccc(OC(F)=C(c2ccc(C)c(C)c2)C(F)(F)F)c1 [Compound 63]
C. V. (%) RSB (Rhizoctonia solani AG-1): 40%
C. V. (%) CGM (Botrytis cinerae): 25%
C. V. (%) RCB [1]: 75%
C. V. (%), Fungicidal activities against TLB at 10 ppm (Erysiphae graminis): 100%
C. V. (%) BPM (Erysiphae graminis): 100%
C. V. (%) TLB (Phytophthora infestans): 25%
C. V. (%) WLR (Puccinia recondita): 100%

COC=C(C(=O)OC)c1ccccc1COc1cccc(OC(F)=Cc2cccc(OC)c2)c1 [Compound 25]
C. V. (%) RSB (Rhizoctonia solani AG-1): 92%
C. V. (%) CGM (Botrytis cinerae): 0%
C. V. (%) Fungicidal Activities against RCB at 10 ppm [1]: 95%
C. V. (%) Fungicidal Activities against RCB at 10 ppm (TABLE 6) [1]: 95%
C. V. (%) RCB [1]: 95%
C. V. (%), Fungicidal activities against TLB at 10 ppm (Erysiphae graminis): 91%
C. V. (%) BPM (Erysiphae graminis): 98%
C. V. (%) TLB (Phytophthora infestans): 43%
C. V. (%), Fungicidal Activities against WLB at 10 ppm (Puccinia recondita): 99%
C. V. (%) WLR (Puccinia recondita): 100%

CNC(=O)C(=NOC)c1ccccc1COc1cccc(OC(F)=C(c2ccccc2)C(F)(F)F)c1 [Compound 48]
C. V. (%) RSB (Rhizoctonia solani AG-1): 45%
C. V. (%) CGM (Botrytis cinerae): 28%
C. V. (%) Fungicidal Activities against RCB at 10 ppm [1]: 100%
C. V. (%) Fungicidal Activities against RCB at 10 ppm (TABLE 6) [1]: 100%
C. V. (%) RCB [1]: 97%
C. V. (%), Fungicidal activities against TLB at 10 ppm (Erysiphae graminis): 100%
C. V. (%) BPM (Erysiphae graminis): 98%
C. V. (%) TLB (Phytophthora infestans): 70%
C. V. (%), Fungicidal Activities against WLB at 10 ppm (Puccinia recondita): 100%
C. V. (%) WLR (Puccinia recondita): 100%

CNC(=O)C(=COC)c1ccccc1COc1cccc(OC(F)=C(c2cccc(OC)c2)C(F)(F)F)c1 [Compound 72]
C. V. (%) RSB (Rhizoctonia solani AG-1): 33%
C. V. (%) CGM (Botrytis cinerae): 0%
C. V. (%) RCB [1]: 0%
C. V. (%) BPM (Erysiphae graminis): 0%
C. V. (%) TLB (Phytophthora infestans): 33%
C. V. (%) WLR (Puccinia recondita): 0%

CNC(=O)C(=NOC)c1ccccc1COc1cccc(OC(F)=C(c2cccc(Cl)c2)C(F)(F)F)c1 [Compound 87]
C. V. (%) RSB (Rhizoctonia solani AG-1): 0%
C. V. (%) CGM (Botrytis cinerae): 0%
C. V. (%) Fungicidal Activities against RCB at 10 ppm [1]: 100%
C. V. (%) Fungicidal Activities against RCB at 10 ppm (TABLE 6) [1]: 100%
C. V. (%) RCB [1]: 100%
C. V. (%), Fungicidal activities against TLB at 10 ppm (Erysiphae graminis): 100%
C. V. (%) BPM (Erysiphae graminis): 100%
C. V. (%) TLB (Phytophthora infestans): 0%
C. V. (%), Fungicidal Activities against WLB at 10 ppm (Puccinia recondita): 100%
C. V. (%) WLR (Puccinia recondita): 100%

CNC(=O)C(=COC)c1ccccc1COc1cccc(OC(F)=Cc2ccc(OC)cc2)c1 [Compound 30]
C. V. (%) RSB (Rhizoctonia solani AG-1): 5%
C. V. (%) CGM (Botrytis cinerae): 28%
C. V. (%) RCB [1]: 93%
C. V. (%) BPM (Erysiphae graminis): 16%
C. V. (%) TLB (Phytophthora infestans): 6%
C. V. (%) WLR (Puccinia recondita): 0%

CON=C(C(=O)OC)c1ccccc1COc1cccc(OC(F)=C(c2cccc(C)c2)C(F)(F)F)c1 [Compound 51]
C. V. (%) RSB (Rhizoctonia solani AG-1): 60%
C. V. (%) CGM (Botrytis cinerae): 0%
C. V. (%) RCB [1]: 41%
C. V. (%), Fungicidal activities against TLB at 10 ppm (Erysiphae graminis): 98%
C. V. (%) BPM (Erysiphae graminis): 100%
C. V. (%) TLB (Phytophthora infestans): 3%
C. V. (%), Fungicidal Activities against WLB at 10 ppm (Puccinia recondita): 90%
C. V. (%) WLR (Puccinia recondita): 100%

CNC(=O)C(=NOC)c1ccccc1COc1cccc(OC(F)=C(c2cccc(OC)c2)C(F)(F)F)c1 [Compound 74]
C. V. (%) RSB (Rhizoctonia solani AG-1): 70%
C. V. (%) CGM (Botrytis cinerae): 52%
C. V. (%) Fungicidal Activities against RCB at 10 ppm [1]: 93%
C. V. (%) Fungicidal Activities against RCB at 10 ppm (TABLE 6) [1]: 93%
C. V. (%) RCB [1]: 100%
C. V. (%), Fungicidal activities against TLB at 10 ppm (Erysiphae graminis): 100%
C. V. (%) BPM (Erysiphae graminis): 100%
C. V. (%) TLB (Phytophthora infestans): 64%
C. V. (%), Fungicidal Activities against WLB at 10 ppm (Puccinia recondita): 100%
C. V. (%) WLR (Puccinia recondita): 100%

CON=C(C(=O)OC)c1ccccc1COc1cccc(OC(F)=Cc2ccc(OC)cc2)c1 [Compound 31]
C. V. (%) RSB (Rhizoctonia solani AG-1): 30%
C. V. (%) CGM (Botrytis cinerae): 0%
C. V. (%) RCB [1]: 93%
C. V. (%) BPM (Erysiphae graminis): 50%
C. V. (%) TLB (Phytophthora infestans): 84%
C. V. (%) WLR (Puccinia recondita): 93%

CNC(=O)C(=COC)c1ccccc1COc1cccc(OC(F)=C(c2ccc(Br)cc2)C(F)(F)F)c1 [Compound 101]
C. V. (%) RSB (Rhizoctonia solani AG-1): 10%
C. V. (%) CGM (Botrytis cinerae): 21%
C. V. (%) RCB [1]: 0%
C. V. (%) BPM (Erysiphae graminis): 0%
C. V. (%) TLB (Phytophthora infestans): 3%
C. V. (%) WLR (Puccinia recondita): 73%

COC=C(C(=O)OC)c1ccccc1COc1cccc(OC(F)=C(c2cccs2)C(F)(F)F)c1 [Compound 105]
C. V. (%) RSB (Rhizoctonia solani AG-1): 78%
C. V. (%) CGM (Botrytis cinerae): 0%
C. V. (%) RCB [1]: 96%
C. V. (%) BPM (Erysiphae graminis): 70%
C. V. (%) TLB (Phytophthora infestans): 0%
C. V. (%), Fungicidal Activities against WLB at 10 ppm (Puccinia recondita): 96%
C. V. (%) WLR (Puccinia recondita): 100%
